The text below walks through data of ChEMBL document CHEMBL1821577, “Discovery of GSK1997132B a novel centrally penetrant benzimidazole PPARγ partial agonist” (Bioorg Med Chem Lett, 2011).

The target in data set [1] is T1, Cytochrome P450 1A2 (Homo sapiens, UniProt P05177).
T1 sequence (P05177 whole entry): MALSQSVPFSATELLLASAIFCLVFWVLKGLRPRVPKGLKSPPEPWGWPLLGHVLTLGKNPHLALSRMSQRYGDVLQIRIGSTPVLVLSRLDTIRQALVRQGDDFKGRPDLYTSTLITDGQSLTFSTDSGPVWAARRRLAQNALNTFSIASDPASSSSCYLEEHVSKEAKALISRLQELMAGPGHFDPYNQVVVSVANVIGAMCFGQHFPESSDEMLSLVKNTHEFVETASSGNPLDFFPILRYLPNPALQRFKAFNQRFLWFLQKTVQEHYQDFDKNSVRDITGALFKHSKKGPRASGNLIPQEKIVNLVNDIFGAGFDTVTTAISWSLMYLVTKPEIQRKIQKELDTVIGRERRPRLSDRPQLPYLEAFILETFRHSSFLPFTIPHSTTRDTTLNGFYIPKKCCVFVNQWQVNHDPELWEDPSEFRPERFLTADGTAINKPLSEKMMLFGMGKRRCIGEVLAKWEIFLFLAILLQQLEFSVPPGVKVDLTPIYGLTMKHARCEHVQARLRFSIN
The data set can be described thus: Inhibition of CYP1A2. It counts as ADME.

In data set [2] the test system is Brain. The data set can be described thus: Free drug level rat brain at 1 mg/kg, iv. Set-up: dose 1 mg/kg, route intravenous. The settings on record: in vivo. It counts as ADME, organism-based.
A short description of data set [3]: Solubility of the compound in water after 0.5 hrs. It counts as physicochemical.
Data set [4] is described as follows: Ratio of drug uptake in brain to blood at steady state in rat at 2 mg/kg/h, iv. It counts as ADME, organism-based. Set-up: route intravenous.
Data set [5] is described as follows: Fraction unbound in rat blood. It counts as ADME, tissue-based.
Data set [6] relates to P-gp (human MDR1). Nature of the data set: Efflux ratio of permeability in dog MDCK2 expressing human MDR1 cells by PGP assay. It counts as ADME, cell-based, Canis lupus familiaris, MDCK-II. The conditions noted are these: MDCK-MDR1.
Data set [7] in a line: Fraction unbound in rat brain. The data set is classed as ADME, tissue-based.
Data set [8] has as its target Cytochrome P450 2D6 (Homo sapiens, UniProt P10635). The data set can be described thus: Inhibition of CYP2D6. It counts as ADME.
Data set [9] deals with T2, Peroxisome proliferator-activated receptor gamma (Homo sapiens) (UniProt P37231).
T2 sequence (whole entry): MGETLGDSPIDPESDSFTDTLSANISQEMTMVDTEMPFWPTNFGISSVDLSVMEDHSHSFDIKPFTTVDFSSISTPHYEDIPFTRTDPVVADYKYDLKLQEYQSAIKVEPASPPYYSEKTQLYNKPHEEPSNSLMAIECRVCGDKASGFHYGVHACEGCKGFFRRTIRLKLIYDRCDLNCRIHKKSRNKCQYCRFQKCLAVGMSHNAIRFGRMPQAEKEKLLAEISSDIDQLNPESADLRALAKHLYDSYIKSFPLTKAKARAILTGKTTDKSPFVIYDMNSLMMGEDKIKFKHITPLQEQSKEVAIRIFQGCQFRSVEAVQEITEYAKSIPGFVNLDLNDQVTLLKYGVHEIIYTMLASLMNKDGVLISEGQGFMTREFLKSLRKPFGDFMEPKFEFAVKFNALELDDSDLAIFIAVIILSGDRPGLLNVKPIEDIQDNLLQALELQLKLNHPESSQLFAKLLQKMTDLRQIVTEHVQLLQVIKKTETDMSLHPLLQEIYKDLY
Nature of the data set: Activity at human PPARgamma by luciferase reporter gene assay. The arrangement: concentration or dose not given beside the values. Background: In a reporter assay the amount or activity of a reporter protein is the signal.

Data set [10] has as its target Cytochrome P450 2C9 (Homo sapiens, UniProt P11712). The data set can be described thus: Inhibition of CYP2C9. The data set is classed as ADME.
Data set [11] in a line: Solubility of the compound in fed state simulated intestinal fluid after 0.5 hrs. It counts as physicochemical.
The subject of data set [12] is Rattus norvegicus. Nature of the data set: Blood clearance at steady state in rat at 2 mg/kg/h, iv. The arrangement: route intravenous. It counts as ADME, organism-based. The settings on record: in vivo.
For data set [13], the system named is Liver. Nature of the data set: Intrinsic clearance in rat liver S9 fraction. The data set is classed as ADME, subcellular.
For data set [14], the system named is Brain. Nature of the data set: Drug uptake in rat brain at steady state at 2 mg/kg/h, iv. The settings on record: in vivo, read-out: Drug uptake. The arrangement: route intravenous. The data set is classed as ADME, organism-based.
Data set [15] concerns P-gp (human MDR1). Nature of the data set: Permeability of the compound from apical to basolateral direction in dog MDCK2 expressing human MDR1 cells by PGP assay. The data set is classed as ADME, cell-based, Canis lupus familiaris, MDCK-II. The settings on record: MDCK-MDR1, read-out: permeability.
Data set [16] can be described thus: Solubility of the compound in simulated gastric fluid after 0.5 hrs. The data set is classed as physicochemical.
Data set [17] concerns Liver microsomes. Nature of the data set: Intrinsic clearance in human liver microsome. The data set is classed as ADME. Background: Liver microsomes are vesicles of endoplasmic reticulum, rich in cytochrome P450 enzymes.
Data set [18] addresses T3, Cytochrome P450 3A4 (Homo sapiens, UniProt P08684). The data set can be described thus: Inhibition of CYP3A4 using DEF substrate. It counts as ADME.
A short description of data set [19]: Solubility of the compound in fasted state simulated intestinal fluid after 0.5 hrs. It counts as physicochemical.
Data set [20] addresses T3, Cytochrome P450 3A4. Nature of the data set: Inhibition of CYP3A4 using 7-benzyloxyquinoline as substrate. It counts as ADME.
The target in data set [21] is T4, Peroxisome proliferator-activated receptor gamma (Homo sapiens, UniProt P37231).
T4 sequence (P37231 whole entry): T2 sequence (whole entry)
Nature of the data set: Partial agonist activity at human PPARgamma by luciferase reporter gene assay. The data set is classed as functional.

In data set [22] the target is Cytochrome P450 2C19 (Homo sapiens, UniProt P33261). The data set can be described thus: Inhibition of CYP2C19. The data set is classed as ADME.
Data set [23] relates to Liver microsomes. The data set can be described thus: Intrinsic clearance in rat liver microsome. The data set is classed as ADME.

The structures appear in SMILES notation. In brackets after ≈: the same amount, converted by molar mass.

T3 sequence (P08684 whole entry): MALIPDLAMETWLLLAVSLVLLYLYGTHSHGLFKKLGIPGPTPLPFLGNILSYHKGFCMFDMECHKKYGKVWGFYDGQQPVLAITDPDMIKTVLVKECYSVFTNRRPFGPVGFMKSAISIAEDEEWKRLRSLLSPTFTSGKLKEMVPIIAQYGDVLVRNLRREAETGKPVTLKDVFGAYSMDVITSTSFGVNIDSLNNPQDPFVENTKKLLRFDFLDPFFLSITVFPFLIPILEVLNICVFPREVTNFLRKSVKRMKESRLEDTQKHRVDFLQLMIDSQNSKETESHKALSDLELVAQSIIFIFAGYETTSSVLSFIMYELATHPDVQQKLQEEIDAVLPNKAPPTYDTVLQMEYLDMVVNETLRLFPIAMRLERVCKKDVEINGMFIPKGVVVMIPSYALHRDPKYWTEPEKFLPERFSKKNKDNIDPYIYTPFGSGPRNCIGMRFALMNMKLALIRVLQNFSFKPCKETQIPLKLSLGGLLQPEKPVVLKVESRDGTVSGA
Cytochrome P450 2D6, sequence (P10635 whole entry): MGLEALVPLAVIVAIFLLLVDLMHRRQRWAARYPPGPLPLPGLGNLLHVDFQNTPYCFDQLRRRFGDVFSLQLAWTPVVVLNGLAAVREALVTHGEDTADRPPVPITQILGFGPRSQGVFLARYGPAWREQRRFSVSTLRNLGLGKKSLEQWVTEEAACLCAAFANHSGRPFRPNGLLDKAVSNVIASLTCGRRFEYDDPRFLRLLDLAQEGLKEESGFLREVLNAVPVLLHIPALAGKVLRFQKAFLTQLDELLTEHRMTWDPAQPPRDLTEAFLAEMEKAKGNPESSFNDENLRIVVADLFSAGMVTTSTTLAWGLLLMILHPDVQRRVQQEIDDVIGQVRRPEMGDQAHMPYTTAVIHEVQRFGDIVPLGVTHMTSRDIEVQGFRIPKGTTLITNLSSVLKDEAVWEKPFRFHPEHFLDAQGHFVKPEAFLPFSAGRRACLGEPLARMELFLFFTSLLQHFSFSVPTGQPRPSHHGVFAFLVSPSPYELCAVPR
Cytochrome P450 2C9, sequence (P11712 whole entry): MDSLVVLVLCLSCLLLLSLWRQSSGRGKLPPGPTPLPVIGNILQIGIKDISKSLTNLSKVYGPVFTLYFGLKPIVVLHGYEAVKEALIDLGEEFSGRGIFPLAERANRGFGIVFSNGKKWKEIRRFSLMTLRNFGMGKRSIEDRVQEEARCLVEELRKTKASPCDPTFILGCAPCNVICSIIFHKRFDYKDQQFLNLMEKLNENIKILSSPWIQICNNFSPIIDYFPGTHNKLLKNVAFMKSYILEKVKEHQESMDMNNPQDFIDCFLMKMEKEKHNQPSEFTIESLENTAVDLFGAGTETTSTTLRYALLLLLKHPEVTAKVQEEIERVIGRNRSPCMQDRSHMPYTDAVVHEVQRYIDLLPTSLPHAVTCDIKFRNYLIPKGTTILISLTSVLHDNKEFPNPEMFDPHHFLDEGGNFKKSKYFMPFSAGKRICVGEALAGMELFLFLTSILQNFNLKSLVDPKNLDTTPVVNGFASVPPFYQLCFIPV
Cytochrome P450 2C19, sequence (P33261 whole entry): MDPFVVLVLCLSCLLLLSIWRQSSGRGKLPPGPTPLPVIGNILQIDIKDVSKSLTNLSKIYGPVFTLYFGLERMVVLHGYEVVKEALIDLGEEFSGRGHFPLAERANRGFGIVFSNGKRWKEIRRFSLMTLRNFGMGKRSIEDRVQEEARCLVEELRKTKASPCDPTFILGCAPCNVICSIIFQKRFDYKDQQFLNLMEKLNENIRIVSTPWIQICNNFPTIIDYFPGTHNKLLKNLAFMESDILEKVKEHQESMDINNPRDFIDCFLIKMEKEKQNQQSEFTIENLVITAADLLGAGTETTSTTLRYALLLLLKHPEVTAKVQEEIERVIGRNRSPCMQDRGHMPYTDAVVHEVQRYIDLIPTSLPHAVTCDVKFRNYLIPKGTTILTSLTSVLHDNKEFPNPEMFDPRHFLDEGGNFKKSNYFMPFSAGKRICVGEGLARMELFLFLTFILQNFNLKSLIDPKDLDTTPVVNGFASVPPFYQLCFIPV

By IC50 is commonly meant the concentration at which inhibition is half-maximal. A word on the solubility: it is the dissolved amount per volume that the medium holds. As usually defined, the Kp is the ratio of the level in a tissue or fluid to that in plasma or blood. As a reminder, the fraction unbound is the share of the substance not bound to proteins or other matrix. The efflux ratio is a quotient of directional permeabilities that is used to spot active efflux. In general, clearance refers to the rate of elimination divided by the concentration. For orientation: EC50 means the concentration needed to bring the measured effect to its halfway point. Regarding `CC[C@@H](NC(=O)c1ccc2c(c1)ncn2Cc1ncc(F)cc1F)c1ccccc1`, the IC50 in data set [1] is 14 µM; in data set [8] it was 65 µM; in data set [10] it was 42 µM; in [18], 45 µM; in data set [20], over 100 µM; in data set [22], 87 µM. Moreover, the Drug uptake in [2] was found to be 51 nM. In addition, the solubility at 0.5 h in [3] was 330 µg/mL (≈ 812 µM); in data set [11], 220 µg/mL (≈ 541 µM); in data set [16], over 1000 µg/mL; in data set [19], 80 µg/mL (≈ 197 µM). Further, the Kp in [4] was found to be 0.22. In addition, the results for the fraction unbound in data set [5] and in data set [7] were 0.175 and 0.115, respectively. Besides, the efflux ratio in data set [6] was 1.6. Besides, the Activity in data set [9] stood at 68%. The clearance in data set [12] was 30 mL/min/kg. The results for the CL in [13], in data set [17] and in data set [23] were 1.6 mL/min/g, 0.5 mL/min/g and 1.2 mL/min/g, respectively. In addition, the concentration in [14] is 446 nM. In addition, the Papp A→B in [15] is 122 ×10⁻⁶ cm/s. In data set [21], the EC50 is 0.01 µM.
